Test results as given in patent publication US20150175599A1, “FAAH Inhibitors” (Ironwood Pharmaceuticals, Inc., priority 2010, published 2015).
pIC50: −log10 of the molar value. Read-outs that look alike come from different tables or passages of the source.

Tests used:
hERG channel = target: T1, hERG channel (Homo sapiens, UniProt Q12809); assay: hERG channel inhibition, automated patch clamp (IonWorks HT, hERG-CHO); format: cell-based; conditions: CHO cells expressing hERG, 600 s incubation; for inhibition at 600 s, 1 µM: 1 μM compound, read-out: hERG Channel Inhibition % (at 1 μM), vehicle-subtracted values; for inhibition at 600 s, 10 µM: 10 μM compound, read-out: hERG Channel Inhibition % (at 10 μM), vehicle-subtracted values
T1 construct: expressed in transfected cells; host or cells: CHO (hERG-CHO), under Geneticin selection
T1 sequence (Q12809 whole entry): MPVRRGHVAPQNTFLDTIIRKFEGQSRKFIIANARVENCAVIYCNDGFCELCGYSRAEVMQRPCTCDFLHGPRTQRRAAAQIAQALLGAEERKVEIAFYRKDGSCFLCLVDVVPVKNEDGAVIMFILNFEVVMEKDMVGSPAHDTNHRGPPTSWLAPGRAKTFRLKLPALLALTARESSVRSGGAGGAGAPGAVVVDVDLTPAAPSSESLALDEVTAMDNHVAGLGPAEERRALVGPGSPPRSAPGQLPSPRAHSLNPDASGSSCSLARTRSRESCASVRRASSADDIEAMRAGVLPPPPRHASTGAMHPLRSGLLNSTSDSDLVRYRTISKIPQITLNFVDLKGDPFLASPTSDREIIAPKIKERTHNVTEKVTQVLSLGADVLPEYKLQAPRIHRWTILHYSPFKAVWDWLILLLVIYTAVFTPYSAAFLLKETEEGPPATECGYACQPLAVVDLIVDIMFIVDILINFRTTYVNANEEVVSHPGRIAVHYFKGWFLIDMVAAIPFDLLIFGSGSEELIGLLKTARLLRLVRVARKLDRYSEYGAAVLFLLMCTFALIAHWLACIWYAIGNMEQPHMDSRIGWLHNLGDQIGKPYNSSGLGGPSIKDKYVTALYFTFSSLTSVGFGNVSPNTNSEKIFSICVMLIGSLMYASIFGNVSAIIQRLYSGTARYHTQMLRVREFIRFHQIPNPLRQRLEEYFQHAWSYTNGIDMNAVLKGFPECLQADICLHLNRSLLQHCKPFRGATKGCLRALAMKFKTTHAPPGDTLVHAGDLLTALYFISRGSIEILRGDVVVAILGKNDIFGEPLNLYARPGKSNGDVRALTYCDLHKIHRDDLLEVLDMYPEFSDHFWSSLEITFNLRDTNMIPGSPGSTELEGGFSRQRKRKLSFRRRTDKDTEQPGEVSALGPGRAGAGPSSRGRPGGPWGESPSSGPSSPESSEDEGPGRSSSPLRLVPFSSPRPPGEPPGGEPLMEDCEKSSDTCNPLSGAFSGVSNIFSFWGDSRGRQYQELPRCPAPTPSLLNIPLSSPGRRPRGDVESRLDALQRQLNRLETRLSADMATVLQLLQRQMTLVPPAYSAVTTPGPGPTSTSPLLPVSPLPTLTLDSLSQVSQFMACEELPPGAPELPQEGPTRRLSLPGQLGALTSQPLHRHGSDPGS
How it was run: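 hERG-CHO cells held at 30 °C for 48 h before IonWorks HT patch clamp: from −80 mV to +40 for 2 s, then −50 mV for 2 s tail, repeated three times, before and after 600 s compound exposure. Third-pulse post/pre tail amplitude ratio gave percent inhibition; cells with seal <50 MOhm or tail <250 pA excluded.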

[1] = Pharmacokinetic study, plasma level 2 hours after oral dosing in rats; format: in vivo
How it was run: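 Rats dosed by oral gavage in 1% DMA/99% Vitamin E TPGS; EDTA plasma taken by retro-orbital bleed 2 h post-dose. Acetonitrile precipitation with internal standard, LC/MS/MS quantitation against plasma standards 0.1–3000 ng/mL.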

FAAH = target: T2, FAAH (Homo sapiens, UniProt O00519); assay: FAAH inhibition, human brain membrane homogenate assay; format: biochemical
T2 construct: Reactions were initiated by adding 12.5 μg of brain microsome; tissue ABS, Inc; host or cells: human brain cerebral cortex, membrane/microsome fraction pooled from 3 donors
T2 sequence (O00519 1-579): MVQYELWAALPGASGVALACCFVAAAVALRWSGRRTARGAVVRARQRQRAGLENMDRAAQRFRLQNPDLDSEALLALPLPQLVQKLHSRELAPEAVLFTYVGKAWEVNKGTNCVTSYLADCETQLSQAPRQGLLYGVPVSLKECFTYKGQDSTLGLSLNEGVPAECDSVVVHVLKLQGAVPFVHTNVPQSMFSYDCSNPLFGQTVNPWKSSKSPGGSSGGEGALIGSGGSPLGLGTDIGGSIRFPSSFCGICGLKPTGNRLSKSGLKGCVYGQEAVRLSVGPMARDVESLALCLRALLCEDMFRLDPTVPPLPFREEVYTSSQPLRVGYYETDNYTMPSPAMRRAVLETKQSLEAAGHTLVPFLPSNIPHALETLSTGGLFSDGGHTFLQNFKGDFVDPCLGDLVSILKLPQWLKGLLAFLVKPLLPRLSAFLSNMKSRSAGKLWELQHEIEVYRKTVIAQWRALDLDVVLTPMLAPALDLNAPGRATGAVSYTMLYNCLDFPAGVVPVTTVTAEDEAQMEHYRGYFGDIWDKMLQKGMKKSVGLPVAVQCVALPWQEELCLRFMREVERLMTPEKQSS

[2] = human brain homogenate, average activity, read-out: Human brain Extract FAAH IC50

Compound | inhibition at 600 s, 1 µM (hERG channel) [%] | inhibition at 600 s, 10 µM (hERG channel) [%] | 2 hr plasma level-ng/mL (rat, 10 mg/kg PO, 2 hr) [1] | pIC50 (FAAH; [2]) | pIC50 (FAAH)
COc1ccc2c(c1)c(C(=O)C(=O)Nc1cc(OC)ncc1F)c(C)n2Cc1ccc(Cl)cc1 [Compound 54, 2-(1-(4-chlorobenzyl)-5-methoxy-2-methyl-1H-indol-3-yl)-N-(5-fluoro-2-methoxypyridin-4-yl)-2-oxoacetamide] | < 25 | < 25 | A (A = Less than 10 nM) | > 7.00 | 
COc1cc(NC(=O)C(=O)c2c(C)n(Cc3ccc(Cl)cc3)c3cc(Cl)c(OC)cc23)ccn1 [Compound 55, 2-(6-chloro-1-(4-chlorobenzyl)-5-methoxy-2-methyl-1H-indol-3-yl)-N-(2-methoxypyridin-4-yl)-2-oxoacetamide] | < 25 | < 25 | C (C = between 100 nM and 1000 nM) | > 7.00 | 
COc1cc(NC(=O)C(=O)c2c(C)n(Cc3ccc(Cl)cc3)c3ccc(OC)c(F)c23)ccn1 [Compound 59, 2-(1-(4-chlorobenzyl)-4-fluoro-5-methoxy-2-methyl-1H-indol-3-yl)-N-(2-methoxypyridin-4-yl)-2-oxoacetamide] | < 25 | 25 to 50 | C (C = between 100 nM and 1000 nM) | > 7.00 | 
COc1cc(NC(=O)C(=O)c2c(C)n(Cc3ccc(Cl)cn3)c3cc(Cl)c(OC)cc23)ccn1 [Compound 60, 2-(6-chloro-1-((5-chloropyridin-2-yl)methyl)-5-methoxy-2-methyl-1H-indol-3-yl)-N-(2-methoxypyridin-4-yl)-2-oxoacetamide] | < 25 | 25 to 50 | D (D = greater than 1000 nM) | > 7.00 | 
COc1cc(NC(=O)C(=O)c2c(C)n(Cc3ccc(Cl)cn3)c3ccc(C)cc23)ccn1 [Compound 61, 2-(1-((5-chloropyridin-2-yl)methyl)-2,5-dimethyl-1H-indol-3-yl)-N-(2-methoxypyridin-4-yl)-2-oxoacetamide] | 25 to 50 | 50 to 75 | D (D = greater than 1000 nM) | > 7.00 | 
COc1cc(NC(=O)C(=O)c2c(C)n(Cc3ccc(Cl)cn3)c3ccc(Cl)cc23)ccn1 [Compound 63, 2-(5-chloro-1-((5-chloropyridin-2-yl)methyl)-2-methyl-1H-indol-3-yl)-N-(2-methoxypyridin-4-yl)-2-oxoacetamide] | < 25 | 50 to 75 | C (C = between 100 nM and 1000 nM) | > 7.00 | 
COc1cc(NC(=O)C(=O)c2c(C)n(Cc3ccc(Cl)cn3)c3cc(F)c(OC)cc23)ccn1 [Compound 64, 2-(1-((5-chloropyridin-2-yl)methyl)-6-fluoro-5-methoxy-2-methyl-1H-indol-3-yl)-N-(2-methoxypyridin-4-yl)-2-oxoacetamide] | < 25 | 25 to 50 | C (C = between 100 nM and 1000 nM) | > 7.00 | 
COc1cc(NC(=O)C(=O)c2c(C)n(Cc3ccc(Cl)cn3)c3cc(OC)c(Cl)cc23)ccn1 [Compound 67, 2-(5-chloro-1-((5-chloropyridin-2-yl)methyl)-6-methoxy-2-methyl-1H-indol-3-yl)-N-(2-methoxypyridin-4-yl)-2-oxoacetamide] | < 25 | < 25 | D (D = greater than 1000 nM) | > 7.00 | 
COc1cc(NC(=O)C(=O)c2c(C)n(Cc3ccc(Cl)cn3)c3ccccc23)ccn1 [Compound 68, 2-(1-((5-chloropyridin-2-yl)methyl)-2-methyl-1H-indol-3-yl)-N-(2-methoxypyridin-4-yl)-2-oxoacetamide] | < 25 | < 25 | D (D = greater than 1000 nM) | > 7.00 | 
COc1ccc(Cn2c(C)c(C(=O)C(=O)Nc3ccnc(OC)c3)c3cc(C)ccc32)nc1 [Compound 69, 2-(1-((5-methoxypyridin-2-yl)methyl)-2,5-dimethyl-1H-indol-3-yl)-N-(2-methoxypyridin-4-yl)-2-oxoacetamide] | < 25 | < 25 | C (C = between 100 nM and 1000 nM) | > 7.00 | 
COc1cc(NC(=O)C(=O)c2c(C)n(Cc3ncc(Cl)cc3Cl)c3cc(Cl)c(OC)cc23)ccn1 [Compound 70, 2-(6-chloro-1-((3,5-dichloropyridin-2-yl)methyl)-5-methoxy-2-methyl-1H-indol-3-yl)-N-(2-methoxypyridin-4-yl)-2-oxoacetamide] | < 25 | < 25 | C (C = between 100 nM and 1000 nM) | > 7.00 | 
Cc1c(C(=O)C(=O)Nc2cccc(Cl)c2)c2cc(O)ccc2n1Cc1ccc(Cl)cc1 [Compound 71, 2-(1-(4-chlorobenzyl)-5-hydroxy-2-methyl-1H-indol-3-yl)-N-(3-chlorophenyl)-2-oxoacetamide] | < 25 | < 25 | A (A = Less than 10 nM) | > 7.00 | 
COc1cc(NC(=O)C(=O)c2c(C)n(Cc3ccc(Cl)cc3)c3cc(F)c(OC)cc23)ccn1 [Compound 72, 2-(1-(4-chlorobenzyl)-6-fluoro-5-methoxy-2-methyl-1H-indol-3-yl)-N-(2-methoxypyridin-4-yl)-2-oxoacetamide] | < 25 | 25 to 50 | C (C = between 100 nM and 1000 nM) | > 7.00 | 
COc1ccc2c(c1)c(C(=O)C(=O)Nc1ccnc(OC)c1)c(C)n2Cc1ccccn1 [Compound 77, 2-(5-methoxy-2-methyl-1-(pyridin-2-ylmethyl)-1H-indol-3-yl)-N-(2-methoxypyridin-4-yl)-2-oxoacetamide] | < 25 | < 25 | C (C = between 100 nM and 1000 nM) | 6.00 to 7.00 | 
COc1cc(NC(=O)C(=O)c2c(C)n(Cc3ncc(F)cc3F)c3ccc(C)cc23)ccn1 [Compound 88, 2-(1-((3,5-difluoropyridin-2-yl)methyl)-2,5-dimethyl-1H-indol-3-yl)-N-(2-methoxypyridin-4-yl)-2-oxoacetamide] | < 25 | < 25 | D (D = greater than 1000 nM) |  | > 7.00
COc1ccc(Cn2c(C)c(C(=O)C(=O)Nc3ccnc(OC)c3)c3cc(OC)c(C)cc32)nc1 [Compound 96, 2-(5-methoxy-1-((5-methoxypyridin-2-yl)methyl)-2,6-dimethyl-1H-indol-3-yl)-N-(2-methoxypyridin-4-yl)-2-oxoacetamide] | < 25 | < 25 | C (C = between 100 nM and 1000 nM) | > 7.00 | 
COc1cc(NC(=O)C(=O)c2c(C)n(Cc3ncc(Cl)cc3F)c3cc(Cl)c(OC)cc23)ccn1 [Compound 97, 2-(6-chloro-1-((5-chloro-3-fluoropyridin-2-yl)methyl)-5-methoxy-2-methyl-1H-indol-3-yl)-N-(2-methoxypyridin-4-yl)-2-oxoacetamide] | < 25 | < 25 | C (C = between 100 nM and 1000 nM) | > 7.00 | 
COc1ccc(Cn2c(C)c(C(=O)C(=O)Nc3ccnc(OC)c3)c3cc(OC)c(Cl)cc32)nc1 [Compound 98, 2-(6-chloro-5-methoxy-1-((5-methoxypyridin-2-yl)methyl)-2-methyl-1H-indol-3-yl)-N-(2-methoxypyridin-4-yl)-2-oxoacetamide] | < 25 | < 25 | C (C = between 100 nM and 1000 nM) | > 7.00 | 
COc1cc(NC(=O)C(=O)c2c(C)n(Cc3ncc(Cl)cc3F)c3cc(F)c(OC)cc23)ccn1 [Compound 99, 2-(1-((5-chloro-3-fluoropyridin-2-yl)methyl)-6-fluoro-5-methoxy-2-methyl-1H-indol-3-yl)-N-(2-methoxypyridin-4-yl)-2-oxoacetamide] | < 25 | < 25 | D (D = greater than 1000 nM) | > 7.00 | 
